Measured values from US20240148836A1, “COMPOSITION FOR TREATING CANCER EXPRESSING SPARC” (SEOUL NATIONAL UNIVERSITY R&DB FOUNDATION, priority 2021, published 2024).
Entries after “also recorded” stand apart in the source; their conditions may differ.

How the values were obtained:
[1] = Histopathology examination, H&E staining; assay type: in vivo; settings: drug-treated mice, FIG. 7B
From the text: The kidney, liver, and spleen of the drug-treated mice were acquired and fixed with 4% paraformaldehyde. Tissues were embedded in paraffin and stained with hematoxylin and eosin (H&E). H&E staining images were acquired using an optical microscope (Olympus BX43, Tokyo, Japan).

U87MG-shSPARC cells = test: Cellular cytotoxicity, Cell Counting Kit-8 (CCK-8) assay; assay type: cell-based, Human; settings: 72 h, CCK-8, n=5, Table 1
Protocol: (§1) Human glioma cells (U87MG) were obtained from American Type Culture Collection (ATCC; Manassas, VA, USA). Low SPARC-expressing U87MG cells, U87MG-shSPARC, were established from a previous study.
(§2) (1) U87MG and U87MG-shSPARC cells were added to 96-well plates (4000 cells/well). […] Cell viability was analyzed using a Cell Counting Kit-8 (CCK-8, Dojindo Molecular Technologies, Tokyo, Japan) assay according to the manufacturer's protocols.

U87MG tumors = test: Tumor CDDP accumulation using ICP-MS; assay type: in vivo, mice; settings: 72 h after last of 7 IV doses, FIG. 6B
Protocol: For tumor CDDP distribution, U87MG or U87MG-shSPARC cells (2×10^6 cells/site) were injected subcutaneously into the right lower flanks. […] At 72 h after the last IV administration (15 days after first administration), mice were euthanized, and the tumor was acquired.
All samples (organs, blood, and tumors) were lyophilized and we analyzed the amount of CDDP using the ICP-MS (NexION 350; Perkin-Elmer, Waltham, MA, USA) installed at the National Center for Inter-university Research Facilities (NCIRF) at Seoul National University.

U87MG tumor xenograft = test: Xenograft tumor model, anti-tumor effect in vivo; set-up: species or system BALB/c nude mice; settings: for weight of mice: xenograft tumor models (U87MG and U87MG-shSPARC), FIG. 5C, 5D, 3 mg/kg IV 7 times
Protocol: BALB/c nude mice (5-week-old, male) were purchased from Orient Bio Inc. (Seongnam, Korea). U87MG or U87MG-shSPARC cells (2×10^6 cells/site) were injected subcutaneously into the right lower flanks.
(§3) The tumor size and body weight of each mouse were recorded every other day. Tumor volume was calculated using the equation V=0.5×L×W^2, where L represents tumor length and W represents tumor width.

[2] = test system: U87MG-shSPARC tumor xenograft; test: Xenograft tumor model, anti-tumor effect in vivo; set-up: species or system BALB/c nude mice
Protocol: All animal studies were performed under approval from the Seoul National University Institutional Animal Care and Use Committee (IACUC No. 18-0231, 1 Nov. 2018). BALB/c nude mice (5-week-old, male) were purchased from Orient Bio Inc. (Seongnam, Korea). U87MG or U87MG-shSPARC cells (2×10^6 cells/site) were injected subcutaneously into the right lower flanks.
as §3

U87MG cells = test: Cellular cytotoxicity, Cell Counting Kit-8 (CCK-8) assay; assay type: cell-based, Human; settings: 72 h
Protocol: as §1, §2
(2) To execute cellular cytotoxicity experiments of HSA bound with CDDPs in different numbers, U87MG cells were added to a 96-well plate (4000 cells/well) and incubated overnight. […] Cell viability was analyzed using a Cell Counting Kit-8 (CCK-8, Dojindo Molecular Technologies, Tokyo, Japan) assay according to the manufacturer's protocols.

[3] = Biosafety: body weight and blood biochemical analysis; assay type: in vivo, mice
Protocol: After centrifugation at 4° C. for 20 min, the plasma was collected for blood biochemical analysis. The concentrations of AST, ALT, BUN, and creatinine were analyzed at DKKorea (Seoul, Korea).

[4] = TUNEL assay of kidney sections; assay type: in vivo, mice; settings: FIGS. 8A and 8B
From the text: The tumor and kidney were fixed with 4% paraformaldehyde and embedded in paraffin, which was further cut into […] sections. To evaluate cellular apoptosis in kidney, a kidney section was stained using a TUNEL assay kit-HRP-DAB (ab206386; abcam, Cambridge, UK) according to the manufacturer's protocols.

N.N.[Cl][Pt][Cl] [CDDP, cis-diamine dichloroplatinum (II)]
H&E staining of kidney tissue [1]: tubular degeneration; also recorded: extensive epithelial vacuolization; also recorded: degeneration of renal tubules; also recorded: vacuolation of epithelial cells | IC50 (U87MG-shSPARC cells): 2.65 ± 0.13 µM | accumulation of CDDP, U87MG vs U87MG-shSPARC tumors (U87MG tumors): no difference in CDDP accumulation between U87MG and U87MG-shSPARC | survival rate (U87MG tumor xenograft; U87MG tumor model vs PBS group, FIG. 5E): prolonged survival time than the PBS group | tumor growth (U87MG tumor xenograft; U87MG tumor model, 12 days after first drug treatment, 3 mg/kg CDDP equivalent IV every other day 7 times, p<0.001): significantly reduced tumor growth than the PBS group | Median survival (U87MG tumor xenograft; U87MG tumor xenograft model, 3 mg/kg CDDP equivalent IV 7 times): 22 days | weight of mice (U87MG tumor xenograft): significantly decreased | weight of mice (U87MG tumor xenograft; listed as CCDP): significant weight loss compared to the group treated with PBS | survival rate ([2]; U87MG-shSPARC tumor model vs PBS group, FIG. 5F): prolonged survival | tumor growth ([2]; U87MG-shSPARC tumor model, 26 days after first drug treatment, 3 mg/kg CDDP equivalent IV every other day 7 times): significantly reduced tumor growth than the PBS group | Median survival ([2]; U87MG-shSPARC tumor xenograft model, 3 mg/kg CDDP equivalent IV 7 times): 42 days | IC50 (U87MG cells; CCK-8, n=5, Table 1): 2.54 ± 0.135 µM | IC50 (U87MG cells; CCK-8, n=6, Table 2 (CDDP number-dependent HSA)): 4.72 ± 0.11 µM | body weight ([3]; 72 h after final treatment (every other day, seven times), FIG. 7A): significant body weight loss compared to the PBS and HSA-CDDP groups | blood urea nitrogen (BUN) ([3]; kidney function, 72 h after final treatment): increased | TUNEL positive cells in kidney [4]: TUNEL positive cells were only identified in the kidney of CDDP-treated mice
